# Measured values published in patent US10010629B2, “Compositions and methods for in vivo imaging” (The Regents of the University of California, priority 2010, dated 2018).
# “Also recorded” adds a separate entry of the source.
# Columns and labels:
# [1] = system: L2G85 mice; assay: BAT imaging after intraperitoneal injection; type: in vivo; conditions: for signal from BAT (intact and excised) after intraperitoneal injection: i.p., 0.1% BSA in PBS, 30 min
# Protocol: Intraperitoneal injection: Anesthetized mice received a 100 μl volume intraperitoneal injection of 200 μM FFA-luc or FFA-S-luc (0.014 mg) bound to 0.1% BSA in PBS immediately prior to imaging. Luminescent images were acquired with a 3-minute exposure back to back for 30-minutes.
# BAT imaging: Anesthetized mice received 100 μl volume intraperitoneal injection of 200 μM FFA-luc (0.014 mg) immediately prior to imaging. Luminescent images were acquired with a 3-minute exposure back to back for 30-minutes. For BAT activation imaging, mice received intraperitoneal injections of the β-adrenergic stimulator CL316,243 at 1 mg/kg 20 minutes prior to the FFA-luc injection.
# [2] = system: L2G85 mice; assay: Intestinal uptake after oral gavage, bioluminescence imaging; type: in vivo; conditions: for bioluminescent signal in the live animal after oral gavage: luciferase-expressing mice
# Protocol: To translate the imaging technique described above to in vivo systems, L2G85 mice were utilized. L2G85 mice express luciferase throughout their bodies. Initial experiments focused on detection of intestinal FFA uptake using oral gavages of the FFA-luc compound. […] This is consistent with known fatty acid uptake localization and kinetics.
# Gavage of FFA-luc and FFA-S-luc: Anesthetized mice received a 50 μl volume gavage of 300 μM FFA-luc or FFA-S-luc (0.01 mg) in a vehicle of 1:1 PEG 400 and propylene glycol. Mice were awake for 5 minutes post-gavage to stimulate peristalsis before they were re-anesthetized for imaging. Mice were under constant isoflurane administration in the IVIS Spectrum In Vivo Imager and luminescent images were acquired with a 5-minute exposure back to back for 60 minutes.
# CT scans: Mice received a 100 μl volume gavage of 80 mg barium sulfate. After one hour, mice received a second barium sulfate gavage, immediately followed by a 50 μl volume gavage of 300 μM FFA-luc (0.01 mg) in a vehicle of 1:1 PEG 400 and propylene glycol. Mice were placed in a Mouse Imaging Shuttle Adaptor (Caliper Life Sciences) and luminescent images were acquired with a 5-minute exposure back to back for 60 minutes. Mice were then transferred to the Quantum FX μCT for CT imaging without disruption of position. Co-registration of luminescent and CT images were performed with Living Image software.
# [3] = system: L2G85 mice; conditions: mouse, in vivo
# Protocol: (§2) To monitor uptake of FFA-luc by internal organs, FFA-luc was bound to the physiological carrier of fatty acids in the serum, i.e. albumin. As a control, animals were injected with an albumin luciferin mix.
# (§3) Animal models: Transgenic mice ubiquitously expressing luciferase under control of the actin promoter were used.
# (§4) Imaging equipment and software: All luminescent/photographic images were captured with the IVIS Spectrum (Caliper Life Sciences). Total flux (photons/sec) of regions of interest were calculated with the IVIS Living Image software. CT data was acquired with the Quantum FX μCT (Caliper Life Sciences).
# (§5) Intravenous injection: Restrained mice received 100 μl volume tail vein injections of 20 μM FFA-luc or FFA-S-luc (0.0014 mg) bound to 0.1% bovine serum albumin (BSA) in phosphate buffered saline (PBS). Mice were immediately anesthetized and luminescent images with a 1-minute exposure were acquired.
# [4] = system: 3T3-L1-luc adipocytes; assay: Cell-based fatty acid uptake assay (bioluminescence), adipocytes; conditions: BSA-bound, 0-100 μM (comparison at 20 μM, 30 min)
# Protocol: (§1) Luciferase expressing cellular model (3T3-L1-Luc Cells): 3T3-L1 fibroblasts (ATCC) were stably transfected with the pGL4.51[luc2/CMV/Neo] vector (Promega). Clones with the highest level of luciferase expression were isolated and expanded.
# Cell culture and treatment: 3T3-L1-luc fibroblasts were grown in DMEM containing 10% fetal bovine serum with 2 mM L-glutamine and 1% penicillin/streptomycin (DMEM/FBS). […] Differentiated cells were used in experiments on days 8-12 of differentiation.
# Cell-based fatty acid uptake assays: 3T3-L1-luc adipocytes or fibroblasts were seeded into black-wall/clear-bottom-96-well plates (Costar) and treated with 100 μl of a fatty acid uptake buffer consisting of 0.1% BSA in Hank's balanced salt solution (HBSS) in addition to 2-100 μM of the compound. Plates were read immediately and luminescent images were acquired with a 5-minute exposure time back to back for 60 minutes. All cell-based assays utilized the same kinetic acquisition settings.
# [5] = system: 3T3-L1-luc fibroblasts; assay: Cell-based fatty acid uptake assay (bioluminescence), undifferentiated fibroblasts; conditions: 20 μM FFA-luc, 30 min
# Protocol: as §1
# Cell culture and treatment: 3T3-L1-luc fibroblasts were grown in DMEM containing 10% fetal bovine serum with 2 mM L-glutamine and 1% penicillin/streptomycin (DMEM/FBS). A cell differentiation protocol was followed as previously described (Baldini et al., Cloning of a Rab3 isotype predominantly expressed in adipocytes. Proc Natl Acad Sci USA 89, 5049 (Jun. 1, 1992); Stahl et al., Insulin causes fatty acid transport protein translocation and enhanced fatty acid uptake in adipocytes. Dev Cell 2, 477 (2002)). […]
# Cell-based fatty acid uptake assays: 3T3-L1-luc adipocytes or fibroblasts were seeded into black-wall/clear-bottom-96-well plates (Costar) and treated with 100 μl of a fatty acid uptake buffer consisting of 0.1% BSA in Hank's balanced salt solution (HBSS) in addition to 2-100 μM of the compound. Plates were read immediately and luminescent images were acquired with a 5-minute exposure time back to back for 60 minutes. […]
# [6] = system: L2G85 mice; assay: Uptake after intravenous injection (albumin-bound), bioluminescence imaging; conditions: i.v., bound to/mixed with albumin
# Protocol: as §2, §3, §4, §5
# [7] = system: FFA-luc uptake by 3T3-L1 adipocytes; assay: FFA-SS-Luc competition assay; type: cell-based
# Protocol: FFA-SS-Luc competition assay: 3T3-L1-luc adipocytes were seeded into black-wall/clear-bottom-96-well plates (Costar) and treated with 100 μl fatty acid uptake buffer including 20 μM FFA-luc and a titration of 0-2 mM oleate or methyl-oleate immediately prior to imaging.
# [8] = system: FFA-luc uptake by 3T3-L1-luc adipocytes; assay: Insulin-mediated uptake of FFA-luc; type: cell-based; conditions: 20 μM FFA-luc
# Protocol: Insulin-mediated uptake of FFA-luc: 3T3-L1-luc adipocytes were seeded into black-wall/clear-bottom-96-well plates (Costar). One group of cells was serum starved in DMEM for 5 hours followed by the addition of […] fatty acid uptake buffer with 20 μM FFA-luc immediately prior to imaging. A second group of cells was treated with DMEM/fetal bovine serum (FBS) for 5 hours followed by the addition of 100 μl fatty acid uptake buffer with 20 μM FFA-luc and 1 ug/mL insulin immediately prior to imaging.
compound,measurement,setting,value
"C[C@H](Cc1ccc2c(c1)OC(C(=O)[O-])(C(=O)[O-])O2)NC[C@H](O)c1cccc(Cl)c1.[Na+].[Na+] [CL316,243, reference compound]",effect on compound 1 uptake by BAT,"[1]; CL316,243 1 mg/kg i.p.",highly reproducible and significant increase
"O=C(O)CCCCCCCCCCCCCCCSCCCOC(=O)Oc1ccc2nc(C3=N[C@@H](C(=O)O)CS3)sc2c1 [FFA-S-luc, (S)-2-(6-((3-(15-carboxypentadecylthio)propoxy)carbonyloxy)benzo[d]thiazol-2-yl)-4,5-dihydrothiazole-4-carboxylic acid]",bioluminescent signal in the live animal after oral gavage,[2],weak and diffuse signal
same,signal from BAT (intact and excised) after intraperitoneal injection,[1],little or no signal
"O=C(O)CCCCCCCCCCCCCCCSSCCCOC(=O)Oc1ccc2nc(C3=N[C@@H](C(=O)O)CS3)sc2c1 [FFA-luc, (S)-2-(6-((3-((15-carboxypentadecyl)disulfanyl)propoxy)carbonyloxy)benzo[d]thiazol-2-yl)-4,5-dihydrothiazole-4-carboxylic acid]",uptake by excised organs after tail vein injection,[3],taken up by several organs
same,light production of removed interscapular brown adipose tissue after injection,[3]; iv,robust light production
same,photon emission from isolated heart after intravenous injection,[3]; iv,high signal
same,photon emission from isolated liver after intravenous injection,[3]; iv,low signal
same,"signal from small intestine, excised GI tract after oral gavage","[2]; ex vivo, small intestine / duodenum",robust signal; also recorded: strongest signal was generated by the proximal duodenum
same,"signal from stomach and colon, excised GI tract after oral gavage","[2]; ex vivo, stomach and colon",negative
same,bioluminescent signal in the live animal after oral gavage,[2],distinct signal emanating from an area consistent with the small intestine; also recorded: abdominal signal
same,signal from BAT (intact and excised) after intraperitoneal injection,[1],robust light signal
same,uptake by luciferase-expressing 3T3 L1 adipocytes (light signal / uptake rate),[4],"robust, dose-dependent signal"
same,uptake kinetics by undifferentiated fibroblast-like 3T3 L1 cells versus adipocytes,[5],significantly lower
"COC(=O)CCCCCCCCCCCCCCCSSCCCOC(=O)Oc1ccc2nc(C3=N[C@@H](C(=O)O)CS3)sc2c1 [Me-FFA-luc, (S)-2-(6-((3-((16-methoxy-16-oxohexadecyl)disulfanyl)propoxy)carbonyloxy)benzo[d]thiazol-2-yl)-4,5-dihydrothiazole-4-carboxylic acid]",uptake by luciferase-expressing 3T3 L1 adipocytes (light signal / uptake rate),[4]; listed as methyl ester of the FFA-luc,"slower, non-saturable uptake"
same,uptake by luciferase-expressing 3T3 L1 adipocytes (light signal / uptake rate),[4]; listed as methyl-FFA-luc,significantly lower uptake rates
"O=C(O)[C@H]1CSC(c2nc3ccc(O)cc3s2)=N1 [luciferin, reference compound]",bioluminescent signal in the live animal after intravenous injection,[6],"very rapid, bright, and delocalized signal"
same,uptake by luciferase-expressing 3T3 L1 adipocytes (light signal / uptake rate),[4],significantly lower uptake rates
CCCCCCCC/C=C\CCCCCCCC(=O)OC [methyl-oleate],competition with FFA-luc uptake by adipocytes,"[7]; 20 μM FFA-luc, excess competitor (0-2 mM titration)",did not compete and not
CCCCCCCC/C=C\CCCCCCCC(=O)O [oleate],IC50,"[7]; Mus musculus, 3T3-L1, read-out: IC50, inhibition of uptake of FFA-luc by 3T3-L1 adipocytes",17 µM
insulin,effect on FFA-luc uptake by adipocytes,[8],stimulatory effect
